Laboratory results from patent publication US6242449A, “3-benzoylindole derivatives and drugs containing the same” (Zeria Pharmaceutical Co., Ltd., priority 1997, dated 2001).
pIC50: −log10 of the molar value. Counter-ions that a name gives are not always drawn.

Columns and labels:
[1] = target: Testosterone 5α-reductase; test: Testosterone 5α-reductase inhibitory action, nuclear fraction of rat prostates; type: biochemical, Wistar rat; conditions: rat prostate nuclear fraction, [4-^14 C]-testosterone, NADPH, pH 7.0, 60 minutes at 37° C.
Method: Male Wistar rats (age: 9-10 weeks old) were anesthetized with ether. The abdomen of each rat was median-cut to thereby remove the prostate. The isolated prostates were weighed and homogenized in 3 tissue volumes of 50 mM Tris-HCl buffer (pH 7.2) containing 0.25 M sucrose. The homogenates were filtered with gauze and centrifuged at 3,000 rpm for 10 minutes. The pellets were resuspended in a buffer as described above and the resultant suspension was used as a nuclear fraction.
The nuclear fraction of the prostates (0.1 ml), 5 mM NADPH (0.1 ml), and a test drug solution (DMSO solution containing the test drug; 0.01 ml) were added to 50 mM Tris-HCl buffer (pH 7.0; 0.78 ml). Reaction was initiated by addition of 150 μM [4-^14 C]-testosterone (0.01 ml) to the resultant solution, and the reaction mixture was incubated for 60 minutes at 37° C. After incubation, reaction was stopped by addition of ethyl acetate (4 ml), and simultaneously, the reaction mixture was subjected to extraction. The extract (3 ml) was brought to dryness through evaporation with nitrogen gas. Ethyl acetate (40 μl) was added thereto, and a 10 μl portion was applied to a silica gel thin layer plate for development with a solvent mixture of ethyl acetate and cyclohexane (1:1). After development, the plate was subjected to autoradiography, and spots attributed to testosterone, dihydrotestosterone, and other metabolites were collected by scraping. Radioactivity of the spots was counted in a liquid scintillation counter. From the total radioactivity and the radioactivity of 5α-metabolites, reaction ratio was obtained. IC50 of the compound, which represents the inhibitory activity of the test compound, was calculated from the reaction ratio of the control solvent and the reaction ratio obtained when the compound was added.

α1 -adrenergic receptor [2] = target: T1, α1 -adrenergic receptor (Oryctolagus cuniculus, UniProt O02824); test: α1-Adrenergic receptor blocking action, rabbit prostate smooth muscle strips (phenylephrine contraction); type: cell-based
T1 construct: Transverse smooth muscle strips were prepared; from tissue; host or cells: rabbit prostate, transverse smooth muscle strips
T1 sequence (O02824 1-466): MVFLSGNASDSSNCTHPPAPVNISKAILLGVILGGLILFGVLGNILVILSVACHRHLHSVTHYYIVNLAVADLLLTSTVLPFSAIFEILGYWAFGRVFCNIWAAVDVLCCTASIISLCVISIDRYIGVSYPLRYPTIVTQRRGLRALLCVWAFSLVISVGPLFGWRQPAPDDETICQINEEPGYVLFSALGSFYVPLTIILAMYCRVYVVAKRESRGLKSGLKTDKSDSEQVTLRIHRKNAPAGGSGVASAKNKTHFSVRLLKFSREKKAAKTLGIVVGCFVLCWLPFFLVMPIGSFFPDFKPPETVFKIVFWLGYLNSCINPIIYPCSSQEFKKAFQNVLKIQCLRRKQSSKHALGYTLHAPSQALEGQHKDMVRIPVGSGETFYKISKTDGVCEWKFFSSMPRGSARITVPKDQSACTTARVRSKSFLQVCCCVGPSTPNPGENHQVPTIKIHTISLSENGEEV
Method: (§1) Rabbits were sacrificed by exsanguination, and in each rabbit the urethra and prostate were isolated from the lower urinary tract system. Transverse smooth muscle strips were prepared. Each strip was suspended in a 37° C. Krebs-solution-containing organ bath which had been bubbled with 95% O2 and 5% CO2. Isometric contraction under a resting tension of 1 g was recorded with an isometric transducer (TB-651T, Nihon Koden) on a thermal pen-type recorder (RECTI HORIZ 8K, Nihon Denki San'ei).
(§2) The strip was allowed to stand for equilibration for 60 minutes, and contractions were elicited by a certain concentration of phenylephrine (10^-5 M). The organ bath was washed with a nutrient liquid. Thereafter, the above procedure was repeated at 60-minute intervals until constant contraction responses were obtained. Subsequently, dose-response curves were obtained by administration of phenylephrine in an accumulative manner (10^-7 to 3×10^-4 M). After the strips were washed and then rested for 60 minutes, the strips were treated with a test drug solution (i.e., DMSO solution containing the test drug; 10^-7 to 10^-5 M) for 30 minutes, to thereby obtain dose-response curves for phenylephrine.
(§3) The composition of the nutrient solution was as follows.
(§4) In all cases, 10^-5 M propranolol (β-adrenaline antagonist) was administered 10 minutes before administration of the drug.
(§5) The efficacy of each test drug in terms of α1 -adrenergic receptor blocking action was assessed from calculation of pA2 (inverse of logarithm of the mole concentration of antagonist which requires, in the presence of an antagonist, twice the concentration of an agonist that provides an effect equal to that obtained in the absence of an antagonist).

α1 -adrenergic receptor [3] = target: T1, α1 -adrenergic receptor; test: α1-Adrenergic receptor blocking action, rabbit urethra smooth muscle strips (phenylephrine contraction); type: cell-based
Method: as §1, §2, §3, §4, §5

[4] = rabbit prostate strips, phenylephrine 10^-7 to 3×10^-4 M, test drug 30 minutes, 10^-5 M propranolol present, read-out: Prostate (pA2) (converted)
[5] = rabbit urethra strips, phenylephrine 10^-7 to 3×10^-4 M, test drug 30 minutes, 10^-5 M propranolol present, read-out: Urethra (pA2) (converted)

SMILES	pIC50 [1]	Kb (α1 -adrenergic receptor [2]; [4])	Kb (α1 -adrenergic receptor [3]; [5])	Kb (α1 -adrenergic receptor [2])	Kb (α1 -adrenergic receptor [3])
CCOc1ccccc1N1CCN(CCCOc2cc(C(=O)c3cn(CCCC(=O)O)c4ccccc34)ccc2NCc2ccc(C)cc2)CC1 [Example 8, 4-{3-{4-[(4-Methylphenyl)methylamino]-3-{3-[4-(2-ethoxyphenyl)piperazin-1-yl]propoxy}benzoyl}indol-1-yl}butanoic acid]	9.00	–	–	–	–
COc1ccccc1N1CCN(CCCOc2cc(C(=O)c3cn(CCCC(=O)O)c4ccccc34)ccc2NCc2ccc(C)cc2)CC1 [Example 7]	9.07	95.5 nM	316 nM	–	–
CCOc1ccccc1N1CCN(CCCOc2cc(C(=O)c3cn(CCCC(=O)O)c4ccccc34)ccc2NCc2ccc(CC)cc2)CC1 [Example 10, 4-{3-{3-{3-[4-(2-Ethoxyphenyl)piperazin-1-yl]propoxy}-4-[(4-ethylphenyl)methylamino]benzoyl}indol-1-yl}butanoic acid]	9.33	–	–	–	–
CCc1ccc(CNc2ccc(C(=O)c3cn(CCCC(=O)O)c4ccccc34)cc2OCCCN2CCN(c3ccccc3OC)CC2)cc1 [Example 1, 4-{3-{4-(4-Ethylphenyl)methylamino-3-{3-[4-(2-methoxyphenyl)piperazin-1-yl]propoxy}benzoyl}indol-1-yl}butanoic acid hydrochloride]	9.15	–	–	224 nM	302 nM
COc1ccccc1N1CCN(CCCOc2cc(C(=O)c3cn(CCCC(=O)O)c4ccccc34)ccc2NCc2ccccc2)CC1 [Example 5]	–	53.7 nM	174 nM	–	–
